Measured values published in ChEMBL document CHEMBL4011597, “Synthesis, screening and docking of fused pyrano[3,2-d]pyrimidine derivatives as xanthine oxidase inhibitor” (Eur J Med Chem, 2017).
pIC50: −log10 of the molar value.

Experiments:
[1] = target: T1, Xanthine dehydrogenase/oxidase (Bos taurus, UniProt P80457); assay: Inhibition of bovine xanthine oxidase assessed as reduction in uric acid formation at 100 uM using xanthine as substrate pretreated for 5 mins followed by substrate addition measured by UV-vis spectrophotometric method relative to control; details: cattle
T1 sequence (P80457 whole entry): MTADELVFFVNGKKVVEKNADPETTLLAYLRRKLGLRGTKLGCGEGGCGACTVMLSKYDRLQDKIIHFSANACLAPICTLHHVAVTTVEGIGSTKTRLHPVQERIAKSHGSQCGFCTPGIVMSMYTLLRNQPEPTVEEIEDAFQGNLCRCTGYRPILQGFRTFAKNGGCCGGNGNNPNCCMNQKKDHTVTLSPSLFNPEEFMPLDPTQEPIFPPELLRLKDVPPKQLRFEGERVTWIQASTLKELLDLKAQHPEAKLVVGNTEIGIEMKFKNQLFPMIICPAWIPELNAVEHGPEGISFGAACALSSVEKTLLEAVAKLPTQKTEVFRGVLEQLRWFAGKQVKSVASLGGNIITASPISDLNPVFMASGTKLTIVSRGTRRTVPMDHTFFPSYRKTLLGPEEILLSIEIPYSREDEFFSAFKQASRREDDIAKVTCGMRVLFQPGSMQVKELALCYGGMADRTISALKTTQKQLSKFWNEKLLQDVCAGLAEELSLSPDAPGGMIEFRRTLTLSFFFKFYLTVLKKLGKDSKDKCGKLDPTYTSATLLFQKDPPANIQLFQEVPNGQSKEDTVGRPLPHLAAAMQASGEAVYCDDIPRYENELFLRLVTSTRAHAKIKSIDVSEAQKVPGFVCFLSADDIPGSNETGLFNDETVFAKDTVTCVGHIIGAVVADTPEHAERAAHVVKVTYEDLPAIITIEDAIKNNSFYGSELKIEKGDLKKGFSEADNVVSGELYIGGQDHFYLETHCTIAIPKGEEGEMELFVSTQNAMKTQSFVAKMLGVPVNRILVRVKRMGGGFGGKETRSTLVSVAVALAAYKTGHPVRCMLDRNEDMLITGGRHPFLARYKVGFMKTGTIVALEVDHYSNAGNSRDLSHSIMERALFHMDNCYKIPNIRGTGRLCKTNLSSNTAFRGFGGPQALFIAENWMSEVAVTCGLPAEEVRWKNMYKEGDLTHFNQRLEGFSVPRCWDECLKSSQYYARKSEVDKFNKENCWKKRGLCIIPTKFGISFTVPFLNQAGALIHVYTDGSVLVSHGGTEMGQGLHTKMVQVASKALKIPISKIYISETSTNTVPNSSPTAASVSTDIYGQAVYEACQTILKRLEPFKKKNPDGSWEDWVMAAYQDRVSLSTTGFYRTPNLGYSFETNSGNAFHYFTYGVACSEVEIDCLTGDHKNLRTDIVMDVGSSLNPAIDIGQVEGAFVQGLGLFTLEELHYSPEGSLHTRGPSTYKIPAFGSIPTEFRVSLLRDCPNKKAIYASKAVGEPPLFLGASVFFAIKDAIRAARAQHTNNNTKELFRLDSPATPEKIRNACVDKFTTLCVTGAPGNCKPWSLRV

[2] = target: T1, Xanthine dehydrogenase/oxidase; assay: Inhibition of bovine xanthine oxidase assessed as reduction in uric acid formation at 1 uM using xanthine as substrate pretreated for 5 mins followed by substrate addition measured by UV-vis spectrophotometric method relative to control; details: cattle
[3] = target: T1, Xanthine dehydrogenase/oxidase; assay: Inhibition of bovine xanthine oxidase assessed as reduction in uric acid formation using xanthine as substrate pretreated for 5 mins followed by substrate addition measured by UV-vis spectrophotometric method
[4] = target: T1, Xanthine dehydrogenase/oxidase; assay: Inhibition of bovine xanthine oxidase assessed as reduction in uric acid formation at 10 uM using xanthine as substrate pretreated for 5 mins followed by substrate addition measured by UV-vis spectrophotometric method relative to control; details: cattle

Structure (SMILES) | inhibition at 100 µM [1] [%] | further results
COc1ccc(Nc2ncnc3c2C(c2ccncc2)c2c(n[nH]c2C)O3)cc1 (stereo not given) | 15.1 | –
COc1ccc(Nc2ncnc3c2C(c2cccc(O)c2)C2=C(CCCC2=O)O3)cc1 (stereo not given) | 82.3 | inhibition at 1 µM [2]: 29.4%; pIC50 [3]: 4.52; inhibition at 10 µM [4]: 41.2%
COc1ccc(Nc2ncnc3c2C(c2cccc([N+](=O)[O-])c2)c2c(n[nH]c2C)O3)cc1 (stereo not given) | 28.9 | –
COc1ccc(Nc2ncnc3c2C(c2ccc([N+](=O)[O-])cc2)c2ccc4ccccc4c2O3)cc1 (stereo not given) | 10.5 | –
COc1ccc(Nc2ncnc3c2C(c2cc(OC)c(OC)c(OC)c2)C2=C(CCCC2=O)O3)cc1 (stereo not given) | 76.8 | inhibition at 1 µM [2]: 27.4%; pIC50 [3]: 4.40; inhibition at 10 µM [4]: 38%
COc1ccc(Nc2ncnc3c2C(c2cccc(C)c2)c2c(ccc4ccccc24)O3)cc1 (stereo not given) | 22.6 | –
COc1ccc(Nc2ncnc3c2C(c2ccc(Br)cc2)c2c(n[nH]c2C)O3)cc1 (stereo not given) | 30.3 | –
COc1ccc(Nc2ncnc3c2C(c2ccc(OC)c(OC)c2)c2c(ccc4ccccc24)O3)cc1 (stereo not given) | 39.4 | –
COc1ccc(Nc2ncnc3c2C(c2cccc(C)c2)c2ccc4ccccc4c2O3)cc1 (stereo not given) | 21.8 | –
COc1ccc(Nc2ncnc3c2C(c2cccc(O)c2)c2ccc4ccccc4c2O3)cc1 (stereo not given) | 27.4 | –
COc1ccc(Nc2ncnc3c2C(c2cc(OC)c(OC)c(OC)c2)c2c(n[nH]c2C)O3)cc1 (stereo not given) | 47.9 | –
COc1ccc(Nc2ncnc3c2C(c2ccc(F)cc2)c2ccc4ccccc4c2O3)cc1 (stereo not given) | 19 | –
COc1ccc(Nc2ncnc3c2C(c2ccc(O)c(O)c2)c2c(c(=O)oc4ccccc24)O3)cc1 (stereo not given) | 90.4 | inhibition at 1 µM [2]: 35%; pIC50 [3]: 4.74; inhibition at 10 µM [4]: 45.9%
COc1ccc(Nc2ncnc3c2C(c2cccc([N+](=O)[O-])c2)c2ccc4ccccc4c2O3)cc1 (stereo not given) | 13 | –
COc1ccc(Nc2ncnc3c2C(c2ccc(O)c(OC)c2)c2ccc4ccccc4c2O3)cc1 (stereo not given) | 33.2 | –
COc1ccc(Nc2ncnc3c2C(c2ccc([N+](=O)[O-])cc2)c2c(n[nH]c2C)O3)cc1 (stereo not given) | 25.7 | –
COc1ccc(Nc2ncnc3c2C(c2cccs2)C2=C(CCCC2=O)O3)cc1 (stereo not given) | 59.1 | –
COc1ccc(Nc2ncnc3c2C(c2cccs2)c2c(c(=O)oc4ccccc24)O3)cc1 (stereo not given) | 58.8 | –
COc1ccc(Nc2ncnc3c2C(c2ccccc2OC)c2ccc4ccccc4c2O3)cc1 (stereo not given) | 30 | –
COc1ccc(Nc2ncnc3c2C(c2ccccc2)c2ccc4ccccc4c2O3)cc1 (stereo not given) | 20.5 | –
COc1ccc(Nc2ncnc3c2C(c2ccc(OC)c(OC)c2)c2ccc4ccccc4c2O3)cc1 (stereo not given) | 39.7 | –

Structure (SMILES) | inhibition at 100 µM [1] [%] | further results
COc1ccc(Nc2ncnc3c2C(c2cc4ccccc4[nH]2)c2c(n[nH]c2C)O3)cc1 (stereo not given) | 11.2 | –
COc1ccc(Nc2ncnc3c2C(c2ccccc2OC)c2c(n[nH]c2C)O3)cc1 (stereo not given) | 55.2 | –
COc1ccc(Nc2ncnc3c2C(c2ccc(Br)cc2)c2ccc4ccccc4c2O3)cc1 (stereo not given) | 15.5 | –
COc1ccc(Nc2ncnc3c2C(c2cccc(Cl)c2)c2ccc4ccccc4c2O3)cc1 (stereo not given) | 17.1 | –
COc1ccc(Nc2ncnc3c2C(c2ccc(O)cc2)c2ccc4ccccc4c2O3)cc1 (stereo not given) | 28.6 | –
COc1ccc(Nc2ncnc3c2C(c2ccc(F)cc2)c2c(n[nH]c2C)O3)cc1 (stereo not given) | 35.7 | –
COc1ccc(Nc2ncnc3c2C(c2ccc(O)c(O)c2)c2c(ccc4ccccc24)O3)cc1 (stereo not given) | 37.2 | –
COc1ccc(Nc2ncnc3c2C(c2cccc(C)c2)c2c(n[nH]c2C)O3)cc1 (stereo not given) | 43.6 | –
COc1ccc(Nc2ncnc3c2C(c2cccc4ccccc24)c2c(n[nH]c2C)O3)cc1 (stereo not given) | 10.1 | –
COc1ccc(Nc2ncnc3c2C(c2ccc(Br)cc2)c2c(ccc4ccccc24)O3)cc1 (stereo not given) | 16.5 | –
COc1ccc(Nc2ncnc3c2C(c2ccccc2OC)c2c(ccc4ccccc24)O3)cc1 (stereo not given) | 30.1 | –
COc1ccc(Nc2ncnc3c2C(c2ccc(O)c(OC)c2)c2c(ccc4ccccc24)O3)cc1 (stereo not given) | 33.8 | –
COc1ccc(Nc2ncnc3c2C(c2ccncc2)c2c(c(=O)oc4ccccc24)O3)cc1 (stereo not given) | 45.1 | –
COc1ccc(Nc2ncnc3c2C(c2ccc(Cl)cc2)c2c(n[nH]c2C)O3)cc1 (stereo not given) | 32.2 | –
COc1ccc(Nc2ncnc3c2C(c2cc(OC)c(OC)c(OC)c2)c2c(ccc4ccccc24)O3)cc1 (stereo not given) | 25.8 | –
COc1ccc(Nc2ncnc3c2C(c2ccc(Cl)cc2)c2c(ccc4ccccc24)O3)cc1 (stereo not given) | 17.2 | –
COc1ccc(Nc2ncnc3c2C(c2ccc(O)c(O)c2)c2ccc4ccccc4c2O3)cc1 (stereo not given) | 36.5 | –
COc1ccc(Nc2ncnc3c2C(c2ccccc2)c2c(ccc4ccccc24)O3)cc1 (stereo not given) | 20.2 | –
COc1ccc(Nc2ncnc3c2C(c2ccncc2)C2=C(CCCC2=O)O3)cc1 (stereo not given) | 46 | –
COc1ccc(Nc2ncnc3c2C(c2cc4ccccc4[nH]2)c2c(c(=O)oc4ccccc24)O3)cc1 (stereo not given) | 18.4 | –
COc1ccc(Nc2ncnc3c2C(c2ccc(Cl)cc2)c2ccc4ccccc4c2O3)cc1 (stereo not given) | 16.7 | –

Structure (SMILES) | inhibition at 100 µM [1] [%] | further results
COc1ccc(Nc2ncnc3c2C(c2ccc(O)cc2)c2c(n[nH]c2C)O3)cc1 (stereo not given) | 52.1 | –
COc1ccc(Nc2ncnc3c2C(c2ccccc2)c2c(n[nH]c2C)O3)cc1 (stereo not given) | 38.1 | –
COc1ccc(Nc2ncnc3c2C(c2ccc(OC)cc2)c2c(n[nH]c2C)O3)cc1 (stereo not given) | 58.4 | inhibition at 1 µM [2]: 20.1%; inhibition at 10 µM [4]: 29.3%
COc1ccc(Nc2ncnc3c2C(c2ccc(O)cc2)c2c(ccc4ccccc24)O3)cc1 (stereo not given) | 29.1 | –
COc1ccc(Nc2ncnc3c2C(c2ccc(F)cc2)c2c(ccc4ccccc24)O3)cc1 (stereo not given) | 19.6 | –
COc1ccc(Nc2ncnc3c2C(c2cccc(Cl)c2)c2c(ccc4ccccc24)O3)cc1 (stereo not given) | 17.6 | –
COc1ccc(Nc2ncnc3c2C(c2cccc4ccccc24)c2c(c(=O)oc4ccccc24)O3)cc1 (stereo not given) | 10 | –
COc1ccc(Nc2ncnc3c2C(c2ccc(O)c(OC)c2)c2c(n[nH]c2C)O3)cc1 (stereo not given) | 65.5 | pIC50 [3]: 4.22; inhibition at 10 µM [4]: 32.5%
COc1ccc(Nc2ncnc3c2C(c2cccs2)c2c(n[nH]c2C)O3)cc1 (stereo not given) | 19.8 | –
COc1ccc(Nc2ncnc3c2C(c2cccc(O)c2)c2c(ccc4ccccc24)O3)cc1 (stereo not given) | 28.1 | –
COc1ccc(Nc2ncnc3c2C(c2cc4ccccc4[nH]2)C2=C(CCCC2=O)O3)cc1 (stereo not given) | 19.3 | –
COc1ccc(Nc2ncnc3c2C(c2cccc4ccccc24)C2=C(CCCC2=O)O3)cc1 (stereo not given) | 12.1 | –
O=c1cc(-c2ccc(O)cc2)oc2cc(O)cc(O)c12 [APIGENIN] | – | pIC50 [3]: 4.99
COc1ccc(Nc2ncnc3c2C(c2ccc(OC)cc2)c2c(ccc4ccccc24)O3)cc1 (stereo not given) | 32.6 | –
COc1ccc(Nc2ncnc3c2C(c2cccc(Cl)c2)c2c(n[nH]c2C)O3)cc1 (stereo not given) | 33.1 | –
COc1ccc(Nc2ncnc3c2C(c2cccc(O)c2)c2c(n[nH]c2C)O3)cc1 (stereo not given) | 50.1 | –
COc1ccc(Nc2ncnc3c2C(c2cc(OC)c(OC)c(OC)c2)c2ccc4ccccc4c2O3)cc1 (stereo not given) | 25.2 | –
COc1ccc(Nc2ncnc3c2C(c2cccc([N+](=O)[O-])c2)c2c(ccc4ccccc24)O3)cc1 (stereo not given) | 13.3 | –
COc1ccc(Nc2ncnc3c2C(c2ccc(OC)cc2)c2ccc4ccccc4c2O3)cc1 (stereo not given) | 31.1 | –
COc1ccc(Nc2ncnc3c2C(c2ccc([N+](=O)[O-])cc2)c2c(ccc4ccccc24)O3)cc1 (stereo not given) | 11 | –
